Results: US20240318196A1, “BRASSICA EVENT MON94100 AND METHODS OF USE THEREOF” (Monsanto Technology LLC, priority 2018, published 2024)

What was measured:
[1] = test system: Plants comprising Brassica Event MON94100; experiment: Volunteer control: greenhouse plant injury rate after synthetic auxin herbicide spray; assay type: in vivo; conditions: for Plant Injury Rates (%) After Herbicide Spray, MON94100: sprayed at V3 stage, 9 days after treatment, greenhouse
Experimental: (§1) Plants comprising Brassica Event MON94100 and non-transgenic plants of the same germplasm as a control were grown in a greenhouse in a randomized complete block design. Plants were sprayed at V3 stage with one of four synthetic auxin herbicides: dicamba (as XtendiMax®), 2,4-D amine 4 (dimethylamine salt of 2,4-dichlorophenoxyacetic acid), bromoxynil (3,5-dibromo-4-hydroxybenzonitrile as Buctril®), and MCPA amine (4-chloro-2-methylphenoxy acetic acid) in a randomized pattern. Plant injury rate was taken at 9 days after treatment.

[2] = test system: non-transgenic plants of the same germplasm; experiment: as above; assay type: in vivo, Brassica; conditions: for Plant Injury Rates (%) After Herbicide Spray, Control: sprayed at V3 stage, 9 days after treatment, greenhouse
Experimental: as §1

CNC.O=C(O)COc1ccc(Cl)cc1Cl [2,4-D amine, dimethylamine salt of 2,4-dichlorophenoxyacetic acid]
Plant Injury Rates (%) After Herbicide Spray, MON94100 ([1]; 1× rate): 74.5%
Plant Injury Rates (%) After Herbicide Spray, MON94100 ([1]; 2× rate): 83.5%
Plant Injury Rates (%) After Herbicide Spray, Control ([2]; 1× rate): 73.0%
Plant Injury Rates (%) After Herbicide Spray, Control ([2]; 2× rate): 82.0%

Cc1cc(Cl)ccc1OCC(=O)O [MCPA, 4-chloro-2-methylphenoxy acetic acid]
Plant Injury Rates (%) After Herbicide Spray, MON94100 ([1]; 1× rate): 73.0%
Plant Injury Rates (%) After Herbicide Spray, MON94100 ([1]; 2× rate): 86.5%
Plant Injury Rates (%) After Herbicide Spray, Control ([2]; 1× rate): 71.5%
Plant Injury Rates (%) After Herbicide Spray, Control ([2]; 2× rate): 85.0%

N#Cc1cc(Br)c(O)c(Br)c1 [bromoxynil, 3,5-dibromo-4-hydroxybenzonitrile]
Plant Injury Rates (%) After Herbicide Spray, MON94100 ([1]; 1× rate): 80.5%
Plant Injury Rates (%) After Herbicide Spray, MON94100 ([1]; 2× rate): 90.3%
Plant Injury Rates (%) After Herbicide Spray, Control ([2]; 1× rate): 83.3%
Plant Injury Rates (%) After Herbicide Spray, Control ([2]; 2× rate): 90.6%

COc1c(Cl)ccc(Cl)c1C(=O)O [dicamba, 3,6-dichloro-2-methoxybenzoic acid]
Plant Injury Rates (%) After Herbicide Spray, MON94100 ([1]; 1× rate): 0.0%
Plant injury rate ([1]; commercial rate (1X), sprayed at V3, 9 days after treatment, plants comprising Brassica Event MON94100): no injury
Plant Injury Rates (%) After Herbicide Spray, Control ([2]; 1× rate): 21.3%
Plant injury rate ([2]; commercial rate (1X), sprayed at V3, 9 days after treatment, control plants): 21.3%
